# Key:
# [1] = molecular target: T1, Sodium-dependent dopamine transporter (Rattus norvegicus, UniProt P23977); assay: Tested for its ability to inhibit high affinity uptake of [3H]dopamine into rat caudate-putamen tissue; format: tissue-based
# [2] = molecular target: T1, Sodium-dependent dopamine transporter; assay: Binding affinity was determined against cocaine receptor by measuring the ability of compound to displace bound [3H]-3 from rat caudate-putamen tissue; format: tissue-based
# [3] = molecular target: T1, Sodium-dependent dopamine transporter; assay: Binding affinity was determined against cocaine binding site by measuring the ability of compound to displace bound [3H]dopamine from rat caudate-putamen tissue; format: tissue-based
# [4] = Tested for its ability to inhibit high affinity uptake of [3H]-dopamine into rat caudate-putamen tissue; format: functional, tissue-based
# T1 sequence (P23977 whole entry): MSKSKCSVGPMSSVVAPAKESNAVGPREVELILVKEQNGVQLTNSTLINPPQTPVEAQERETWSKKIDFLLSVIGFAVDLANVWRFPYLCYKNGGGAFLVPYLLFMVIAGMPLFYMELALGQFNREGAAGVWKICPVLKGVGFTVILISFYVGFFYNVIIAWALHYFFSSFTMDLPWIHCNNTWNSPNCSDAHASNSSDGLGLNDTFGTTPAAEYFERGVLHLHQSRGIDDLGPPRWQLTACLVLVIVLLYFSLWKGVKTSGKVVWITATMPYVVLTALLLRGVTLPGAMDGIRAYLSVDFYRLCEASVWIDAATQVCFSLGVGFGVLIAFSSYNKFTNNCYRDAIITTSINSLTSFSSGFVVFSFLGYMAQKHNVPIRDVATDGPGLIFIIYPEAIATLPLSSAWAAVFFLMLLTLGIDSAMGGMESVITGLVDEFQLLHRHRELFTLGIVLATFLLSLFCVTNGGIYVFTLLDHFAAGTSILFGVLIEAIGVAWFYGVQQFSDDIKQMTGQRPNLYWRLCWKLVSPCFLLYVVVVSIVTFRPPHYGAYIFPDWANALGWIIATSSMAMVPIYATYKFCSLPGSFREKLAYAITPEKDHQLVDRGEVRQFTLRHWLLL
SMILES,IC50 [1] [nM],Ki [2] [nM],Ki [3] [nM],IC50 [4] [nM]
COC(=O)[C@@H]1C2CC[C@H](C[C@@H]1c1ccccc1)N2C,373,314,33,–
CN1C2CC[C@@H]1C[C@H](c1ccccc1)C2CC/C=C/C(=O)O (stereo partly drawn),–,–,20,203
CN1C2CC[C@@H]1C[C@H](c1ccccc1)C2CCCO (stereo partly drawn),64,–,11,–
COC(=O)CCC1C2CC[C@H](C[C@@H]1c1ccccc1)N2C (stereo partly drawn),166,–,23,–
COC(=O)/C=C/C1C2CC[C@H](C[C@@H]1c1ccccc1)N2C (stereo partly drawn),123,–,22,–
CN1C2CC[C@@H]1C[C@H](c1ccccc1)C2/C=C/CO (stereo partly drawn),–,–,26,159

# From ChEMBL document CHEMBL1127400 (J Med Chem, 1994)
